Data published in patent publication US20210000740A1, “COMPOSITIONS FOR SMALL MOLECULE THERAPEUTIC AGENT COMPOUNDS” (Delpor, Inc., priority 2018, published 2021).
In brackets after ≈: the same amount, converted by molar mass. Read-outs that look alike come from different tables or passages of the source. One block for each molecule: values may come before it.

Key:
[1] = In vitro pH of compositions prepared with organic acids (Table 1); format: physicochemical; settings: composition prepared with the organic acid
Procedure: Compositions were prepared with the following organic acids listed in Table 1, and pH values were measured.

[2] = cited from earlier work; for Water Solubility: intrinsic water solubility of the acid used in Example 5
[3] = cited from earlier work
[4] = cited from earlier work; remark: listed apart in the source
[5] = pH of a saturated aqueous solution of the acid; format: physicochemical; settings: excluding the drug
Procedure: The rates of in vitro release of the risperidone salts listed in Example 5 are also related in part to the pH of a saturated aqueous solution of the acid. The pH at saturating concentrations of the acids used in Example 5 and their respective risperidone release rates (expressed as the cumulative percent total risperidone released following 15 days incubation at 37° C.) are shown in FIG. 7.

[6] = in vitro, after 28 days, PBS 37° C.

SMILES: O=C1CC2(CCCC2)CC(=O)N1CCCCN1CCN(c2ncccn2)CC1 [Buspirone]
room temperature water solubility ([4]; room temperature): about 21 mg/L

SMILES: CN(C)CCC[C@@]1(c2ccc(F)cc2)OCc2cc(C#N)ccc21 [Escitalopram]
water solubility (in words) [4]: practically insoluble in water

SMILES: CCN(C)C(=O)Oc1cccc([C@H](C)N(C)C)c1 [Rivastigmine]
water solubility (in words) [4]: poorly water soluble

SMILES: CCCN(CCc1cccs1)[C@H]1CCc2c(O)cccc2C1 [Rotigotine]
water solubility (in words) [4]: practically insoluble in water

SMILES: O=C(O)CCCCCCCCC(=O)O [Sebacic, sebacic acid]
pKa ([3]; organic acid, Table 1): 4.72

SMILES: O=c1[nH]c(=O)c2[nH]c(=O)[nH]c2[nH]1 [Uric acid]
Water Solubility [2]: 60 µg/mL

SMILES: Cc1cc2c(s1)Nc1ccccc1N=C2N1CCN(C)CC1 [olanzapine, reference compound]
water solubility (in words) [4]: poorly water soluble | pKa1 ([3]; reported value, doubly protonated olanzapine): 5.0

SMILES: Cc1nccn1CC1CCc2c(c3ccccc3n2C)C1=O (stereo not drawn) [ondansetron]
water solubility (in words) [4]: limited water solubility

SMILES: Cc1nc2n(c(=O)c1CCN1CCC(c3noc4cc(F)ccc34)CC1)CCCC2 [risperidone]
insolubility in water as a neutral free base ([4]; 20-25° C.): > 10000 volumes of water per volume of drug

SMILES: CCCc1nc(C)c2c(=O)[nH]c(-c3cc(S(=O)(=O)N4CCN(CC)CC4)ccc3OCC)nn12 [vardenafil]
water solubility (in words) [4]: limited water solubility

Further lines, with some results ahead:

In vitro pH [1]: 2.42
SMILES: O=C(O)C(O)c1ccccc1 (racemic) [rac-Mandelic]
Solubility ([2]; organic acid, Table 1): 158700 µg/mL (≈ 1040 mM) | pKa ([3]; organic acid, Table 1): 3.85

In vitro pH [1]: 6.34
SMILES: O=C(O)C=Cc1ccc(Cl)cc1 [4-Chlorocinnamic]
pKa ([3]; organic acid, Table 1): 4.41

In vitro pH [1]: 6.13
SMILES: Cc1ccc(C=CC(=O)O)cc1 [4-Methylcinnamic]

pH at a saturating concentration [5]: 2.6
SMILES: O=C(O)CNC(=O)c1ccccc1 [Hippuric acid]

pH at a saturating concentration [5]: 3.0
SMILES: O=C(O)CCc1ccc(O)cc1 [Hydroxyphenylpropionic acid, 3-(4-hydroxyphenyl)propionic acid]
Water Solubility [2]: 2760 µg/mL

In vitro pH [1]: 3.68
SMILES: O=C(O)c1cccnc1 [Nicotinic, nicotinic acid]

In vitro pH [1]: 4.21
SMILES: Nc1ccc(C(=O)O)cc1 [PABA, p-aminobenzoic acid]
pKa ([3]; organic acid, Table 1): 4.65

In vitro pH [1]: 3.95
SMILES: O=C(O)/C=C/c1cccc(O)c1 [m-Coumaric, m-coumaric acid]
Solubility [2]: 1040 µg/mL (≈ 6.34 mM) | pKa [3]: 4.01

In vitro pH [1]: 4.49
SMILES: COc1cccc(C=CC(=O)O)c1 [m-Methoxycinnamic, m-methoxycinnamic acid]
Solubility ([2]; organic acid, Table 1): 4460 µg/mL (≈ 25 mM) | pKa ([3]; organic acid, Table 1): 4.47

In vitro pH [1]: 5.05
SMILES: COc1ccc(C(=O)O)cc1 [p-Anisic, p-anisic acid]
Solubility ([2]; organic acid, Table 1): 400 µg/mL (≈ 2.63 mM) | pKa ([3]; organic acid, Table 1): 4.34

In vitro pH [1]: 4.36
SMILES: O=C(O)/C=C/c1ccc(O)cc1 [p-Coumaric, p-coumaric acid]
Solubility ([2]; organic acid, Table 1): 1000 to 10000 µg/mL

In vitro pH [1]: 5.37
SMILES: COc1ccc(C=CC(=O)O)cc1 [p-Methoxycinnamic, p-methoxycinnamic acid]
Solubility ([2]; organic acid, Table 1): 712 µg/mL (≈ 4 mM) | pKa ([3]; organic acid, Table 1): 4.04

percent of the drug released [6]: approximately 10%
SMILES: Clc1ccc2nsnc2c1NC1=NCCN1 [tizanidine free base, tizanidine]

In vitro pH [1]: 4.35
SMILES: O=C(O)/C=C/c1ccccc1 [trans-Cinnamic, trans-cinnamic acid]
